Measurements published in patent US20240150333A1, “TAF1 INHIBITORS” (H. LEE MOFFITT CANCER CENTER AND RESEARCH INSTITUTE, INC., priority 2020, published 2024).

How the values were obtained:
Assay type in all cases: binding
BRD3(1) = molecular target: T1, BRD3(1) (Homo sapiens, UniProt Q15059); assay: Bromoscan selectivity profiling (DiscoveRx); details: at 20,000 nM
T1 construct: 32 bromodomains (by DiscoveRx); purchased DiscoveRx (BromoScan service)
Method: (§1) qPCR-based BRD binding assay. Another method for the determination of dissociation constants of BRD-ligand complexes is offered by DiscoveRx Corp. The assay is based on competition between test compound and immobilized high-affinity ligand for binding to the KAc site of BRDs. The amount of TAF1 remaining on an immobilized high-affinity ligand in the presence of ligand is measured using a quantitative real-time polymerase chain reaction (qPCR) method that detects the associated DNA label tagged to the BRD.
(§2) Inhibitor selectivity assays To assess target selectivity, compounds with highest biochemical and cellular activities can be profiled against panels of BRDs and kinases using the services of DiscoveRx and/or Reaction biology, as we have done previously.

ATAD2A = molecular target: T2, ATAD2A (Homo sapiens, UniProt Q6PL18); assay: Bromoscan selectivity profiling (DiscoveRx); details: at 20,000 nM
T2 construct: 32 bromodomains (by DiscoveRx); purchased DiscoveRx (BromoScan service)
T2 sequence (Q6PL18 980-1092 limits assumed): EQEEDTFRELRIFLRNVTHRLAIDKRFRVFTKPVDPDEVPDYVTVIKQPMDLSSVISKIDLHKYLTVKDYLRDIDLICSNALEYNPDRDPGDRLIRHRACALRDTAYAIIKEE
Method: as §1, §2

BAZ2B = molecular target: T3, BAZ2B (Homo sapiens, UniProt Q9UIF8); assay: Bromoscan selectivity profiling (DiscoveRx); details: at 20,000 nM
T3 construct: 32 bromodomains (by DiscoveRx); purchased DiscoveRx (BromoScan service)
T3 sequence (Q9UIF8 2060-2164 limits assumed): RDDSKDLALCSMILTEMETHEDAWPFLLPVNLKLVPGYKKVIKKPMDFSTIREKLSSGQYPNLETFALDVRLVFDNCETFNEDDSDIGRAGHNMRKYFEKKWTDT
Method: as §1, §2

EP300 = molecular target: T4, EP300 (Homo sapiens, UniProt Q09472); assay: Bromoscan selectivity profiling (DiscoveRx); details: at 20,000 nM
T4 construct: purchased DiscoveRx
T4 sequence (Q09472 1049-1156 limits assumed): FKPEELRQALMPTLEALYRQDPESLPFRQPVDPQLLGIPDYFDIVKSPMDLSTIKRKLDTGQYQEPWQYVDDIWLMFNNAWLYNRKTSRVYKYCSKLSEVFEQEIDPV
Method: as §1, §2

PBRM1(2) = molecular target: T5, PBRM1(2) (Homo sapiens, UniProt Q86U86); assay: Bromoscan selectivity profiling (DiscoveRx); details: at 20,000 nM
T5 construct: PBRM1(2); purchased DiscoveRx
T5 sequence (Q86U86 177-287 limits assumed): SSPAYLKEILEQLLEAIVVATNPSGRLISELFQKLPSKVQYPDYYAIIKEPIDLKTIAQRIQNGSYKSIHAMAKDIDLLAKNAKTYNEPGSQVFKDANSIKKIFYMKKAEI
Method: as §1, §2

BRD2(2) = molecular target: T6, BRD2(2) (Homo sapiens, UniProt P25440); assay: Bromoscan selectivity profiling (DiscoveRx); details: at 20,000 nM
T6 construct: 32 bromodomains (by DiscoveRx); purchased DiscoveRx (BromoScan service)
T6 sequence (P25440 344-453 limits assumed): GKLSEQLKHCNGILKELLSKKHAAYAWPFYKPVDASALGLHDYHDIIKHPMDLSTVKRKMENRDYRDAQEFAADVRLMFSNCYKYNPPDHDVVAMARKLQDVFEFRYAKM
Method: as §1, §2

BRDT(1) = molecular target: T7, BRDT(1) (Homo sapiens, UniProt Q58F21); assay: Bromoscan selectivity profiling (DiscoveRx); details: at 20,000 nM
T7 construct: BRDT(1); purchased DiscoveRx
Method: as §1, §2

TAF1(2) = molecular target: T8, TAF1(2) (Homo sapiens, UniProt P21675); assay: Bromoscan selectivity profiling (DiscoveRx); details: at 20,000 nM
T8 construct: purchased DiscoveRx
T8 sequence (P21675 1519-1628 limits assumed): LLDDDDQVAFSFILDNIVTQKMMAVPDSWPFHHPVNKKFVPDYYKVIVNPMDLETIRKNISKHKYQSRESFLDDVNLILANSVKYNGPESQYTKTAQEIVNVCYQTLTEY
Method: as §1, §2

BRPF3 = molecular target: T9, BRPF3 (Homo sapiens, UniProt Q9ULD4); assay: Bromoscan selectivity profiling (DiscoveRx); details: at 20,000 nM
T9 construct: purchased DiscoveRx
T9 sequence (Q9ULD4 589-693 limits assumed): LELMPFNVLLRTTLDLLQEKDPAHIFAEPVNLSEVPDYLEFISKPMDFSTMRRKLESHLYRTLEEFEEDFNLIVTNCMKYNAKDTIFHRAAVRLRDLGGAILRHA
Method: as §1, §2

TAF1-2 (TAF1 BD2) = molecular target: T10, TAF1-2 (TAF1 BD2) (Homo sapiens, UniProt P21675); assay: Differential scanning fluorimetry (DSF) thermal shift
T10 construct: BD2 (residues 1501-1635); His6 (TEV-cleavable) (cleaved yes); host or cells: E. coli BL21 (DE3)
T10 sequence (P21675 1501-1635 isoform P21675-1): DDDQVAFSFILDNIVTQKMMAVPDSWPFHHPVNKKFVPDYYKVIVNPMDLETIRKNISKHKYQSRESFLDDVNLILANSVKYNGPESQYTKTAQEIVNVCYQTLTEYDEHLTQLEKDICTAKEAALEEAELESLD

T1 sequence (Q15059 34-140 limits assumed): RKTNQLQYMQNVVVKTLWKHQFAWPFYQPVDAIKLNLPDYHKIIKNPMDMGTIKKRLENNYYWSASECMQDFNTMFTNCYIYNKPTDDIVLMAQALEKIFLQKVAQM

- inhibition at 20 µM (BRD3(1)): 60%
- inhibition at 20 µM (ATAD2A): 0%
- inhibition at 20 µM (BAZ2B): 0%
- inhibition at 20 µM (EP300): 36%
- inhibition at 20 µM (PBRM1(2)): 5%
- inhibition at 20 µM (BRD2(2)): 84%
- inhibition at 20 µM (BRDT(1)): 56%
- inhibition at 20 µM (TAF1(2)): 99.8%
- inhibition at 20 µM (BRPF3): 20%
- DSF (ΔTm, ° C.) TAF1-2 (TAF1-2 (TAF1 BD2); Table 1 (Example 1)): 2.9 ± 0.2 °C
- ΔTm at 100 µM (TAF1-2 (TAF1 BD2); Table 2 (Example 2), 100 μM compound, standard deviation from two experiments): 3.2 °C
- DSF (ΔTm, ° C.) TAF1-2 (TAF1-2 (TAF1 BD2); Table 2 (Example 2), 100 μM compound, standard deviation from two experiments, 100 µM): 3.1 ± 0.1 °C
Structure (SMILES): C[C@@H]1COCCN1c1cc(C2([S@](C)(=N)=O)CC2)nc(-c2cc[nH]c3nccc2-3)n1 [AZD6738]
